The values below come from patent US20080004253A1, “Thiazolopyrimidine modulators of TRPV1” (priority 2006, published 2008).

The structures appear in SMILES notation. A value given as a limit tells only on which side of the number the result lay.

The target in one experiment is T1, rat TRPV1 (Rattus norvegicus, UniProt O35433).
T1 construct: expressed in transfected cells; host or cells: HEK293 (rTRPV1/HEK293), geneticin selection
Put plainly: Functional assay: block of capsaicin-induced Ca2+ influx, rat assay (rTRPV1/HEK293, FLIPR). The settings on record: rTRPV1/HEK293 cells, capsaicin challenge, Fluo-3 fluorescence; mean; > value = solubility limit in assay medium. Type of experiment: cell-based. The protocol: (§1) Functional assay: block of capsaicin-induced Ca^2+ influx
(§2) HEK293 cells were transfected with human TRPV1 cloned in pcDNA3.1zeo(+) using the Effectene non-liposomal lipid based transfection kit (Qiagen) (hTRPV1/HEK293). hTRPV1/HEK293 cells were routinely grown as monolayers under selection in zeocin (200 μg/mL; Invitrogen) in Dulbecco's Modified Eagle Medium (DMEM, Gibco BRL) supplemented with 10% fetal bovine serum, and penicillin/streptomycin (50 units/mL) in 5% CO2 at 37° C. Cells were passaged frequently, every 3-5 days, to avoid overgrowth, depletion of essential medium components, or acidic medium exposure. Cells were passaged using a brief wash in 0.05% trypsin with 1 mM EDTA, followed by dissociation in divalent-free phosphate-buffered saline (Hyclone #SH30028.02). […] The assay buffer was composed of 130 mM NaCl, 2 mM KCl, 2 mM MgCl2, 10 mM HEPES, 5 mM glucose, and either 2 mM or 20 μM CaCl2. On the day of the experiment, the culture medium was replaced with 2 mM calcium assay buffer using an automated plate washer (ELx405; Biotek, VT). […] After loading the cells, the dye solution was replaced with 50 μL/well of 20 μM calcium assay buffer using the ELx405 plate washer. Test compounds (50 μL/well) were added to the plate and incubated for 30 min. […] The IC50 values were determined. […] The contents of the wells were mixed 3 times (40 μL mix volume) immediately after the additions were made. Concentration-dependence of block was determined by exposing each well of cells in duplicate rows of a 96-well plate to a serial dilution of test compound. The concentration series usually started at 10 μM with a three-fold serial decrement in concentration. The magnitude of the capsaicin response was determined by measuring the change in fluo3 fluorescence before and 100 seconds after the addition of the agonist. Data were analyzed using a non-linear regression program (Origin; OriginLab, MA).
This assay was performed similarly to the human assay described above, but using HEK293 cells transfected with rat TRPV1 (rTRPV1/HEK293).
(§3) IC50 values shown are the average (mean) of the results obtained. […] Compounds were tested in either the free base or trifluoroacetic acid salt form.

The target in another experiment is T2, human TRPV1 (Homo sapiens, UniProt Q8NER1).
T2 construct: expressed in transfected cells; host or cells: HEK293 (hTRPV1/HEK293), zeocin selection
T2 sequence (Q8NER1 whole entry): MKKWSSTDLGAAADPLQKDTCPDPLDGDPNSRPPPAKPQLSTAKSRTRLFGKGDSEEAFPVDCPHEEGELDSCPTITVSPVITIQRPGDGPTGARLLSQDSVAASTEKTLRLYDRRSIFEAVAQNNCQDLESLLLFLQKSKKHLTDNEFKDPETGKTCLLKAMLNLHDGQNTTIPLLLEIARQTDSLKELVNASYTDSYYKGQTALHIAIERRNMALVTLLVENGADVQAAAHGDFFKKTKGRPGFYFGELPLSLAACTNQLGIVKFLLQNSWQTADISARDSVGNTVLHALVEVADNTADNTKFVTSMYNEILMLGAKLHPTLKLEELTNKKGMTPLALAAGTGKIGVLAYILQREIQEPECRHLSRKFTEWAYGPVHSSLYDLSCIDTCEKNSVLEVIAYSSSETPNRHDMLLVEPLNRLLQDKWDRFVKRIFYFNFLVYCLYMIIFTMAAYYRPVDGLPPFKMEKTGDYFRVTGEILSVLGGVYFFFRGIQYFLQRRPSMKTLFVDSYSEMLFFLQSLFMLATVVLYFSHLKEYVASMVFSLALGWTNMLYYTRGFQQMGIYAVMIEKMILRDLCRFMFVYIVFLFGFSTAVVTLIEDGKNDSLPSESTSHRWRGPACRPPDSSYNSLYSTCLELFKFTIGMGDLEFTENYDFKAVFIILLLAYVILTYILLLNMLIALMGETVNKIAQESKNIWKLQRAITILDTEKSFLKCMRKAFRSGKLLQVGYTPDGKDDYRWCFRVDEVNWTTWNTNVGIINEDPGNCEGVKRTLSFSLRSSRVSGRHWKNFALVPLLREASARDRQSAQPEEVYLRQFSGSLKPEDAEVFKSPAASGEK
Put plainly: Functional assay: block of capsaicin-induced Ca2+ influx, human assay (hTRPV1/HEK293, FLIPR). As to conditions: hTRPV1/HEK293 cells, 150 nM capsaicin challenge, Fluo-3 fluorescence; mean; > value = solubility limit in assay medium. Format: cell-based. The protocol: as §1, §2, §3

T1 sequence (O35433 whole entry): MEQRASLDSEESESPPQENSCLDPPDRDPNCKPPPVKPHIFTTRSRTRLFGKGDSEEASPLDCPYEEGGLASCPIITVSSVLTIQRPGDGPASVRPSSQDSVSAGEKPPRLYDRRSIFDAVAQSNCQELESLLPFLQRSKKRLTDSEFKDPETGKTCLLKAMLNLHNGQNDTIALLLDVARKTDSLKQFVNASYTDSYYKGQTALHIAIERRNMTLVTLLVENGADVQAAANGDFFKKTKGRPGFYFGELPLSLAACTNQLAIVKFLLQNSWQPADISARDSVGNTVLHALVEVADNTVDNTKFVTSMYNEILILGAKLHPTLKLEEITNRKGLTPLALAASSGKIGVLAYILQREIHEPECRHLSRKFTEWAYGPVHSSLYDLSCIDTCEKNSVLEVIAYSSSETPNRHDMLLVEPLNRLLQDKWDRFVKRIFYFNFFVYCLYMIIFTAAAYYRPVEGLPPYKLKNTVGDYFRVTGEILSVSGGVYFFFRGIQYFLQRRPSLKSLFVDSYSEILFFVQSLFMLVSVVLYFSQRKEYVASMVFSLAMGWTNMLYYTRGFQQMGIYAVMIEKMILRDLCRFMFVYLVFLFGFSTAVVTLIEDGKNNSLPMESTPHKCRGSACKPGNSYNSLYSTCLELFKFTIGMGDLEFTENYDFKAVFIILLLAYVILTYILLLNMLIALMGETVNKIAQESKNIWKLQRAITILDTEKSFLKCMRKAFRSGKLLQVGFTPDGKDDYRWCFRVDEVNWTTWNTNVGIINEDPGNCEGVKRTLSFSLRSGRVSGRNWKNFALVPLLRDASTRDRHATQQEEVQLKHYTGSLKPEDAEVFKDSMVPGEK

For `Cc1cccc(C)c1Nc1nc2c(Nc3ccc(C#N)c(Cl)c3)ncnc2s1` [Example 142, 2-Chloro-4-[2-(2,6-dimethyl-phenylamino)-thiazolo[5,4-d]pyrimidin-7-ylamino]-benzonitrile], the half-maximal inhibitory concentration (IC50) turned out to be 231 nM on rat TRPV1 and 394 nM against human TRPV1.

On to `Cc1nc(Nc2ccc3c(c2)N(C)CCC3(C)C)c2nc(Nc3c(Cl)cccc3Cl)sc2n1` [Example 107, N^2-(2,6-Dichloro-phenyl)-5-methyl-N^7-(1,4,4-trimethyl-1,2,3,4-tetrahydro-quinolin-7-yl)-thiazolo[5,4-d]pyrimidine-2,7-diamine], for which the concentration for half-maximal inhibition (IC50) on rat TRPV1 was 2 nM; on human TRPV1, 25 nM.

`FC(F)(F)c1ccc(Nc2ncnc3sc(Nc4ccccc4)nc23)cn1` [Example 21, N^2-Phenyl-N^7-(6-trifluoromethyl-pyridin-3-yl)-thiazolo[5,4-d]pyrimidine-2,7-diamine]: the values for the half-maximal inhibitory concentration (IC50) at rat TRPV1 and on human TRPV1 were 299 nM and 557 nM, respectively.

For the compound `Cc1cccc(C)c1Nc1nc2c(Nc3ccc(S(=O)(=O)N(C)C)cc3)ncnc2s1` [Example 98, 4-[2-(2,6-Dimethyl-phenylamino)-thiazolo[5,4-d]pyrimidin-7-ylamino]-N,N-dimethyl-benzenesulfonamide], the IC50 turned out to be 7 nM on rat TRPV1 and 15 nM on human TRPV1.

For `Cc1cccc(C)c1Nc1nc2c(NCc3ccccc3)ncnc2s1` [Example 43, N^7-Benzyl-N^2-(2,6-dimethyl-phenyl)-thiazolo[5,4-d]pyrimidine-2,7-diamine], the concentration for half-maximal inhibition (IC50) against rat TRPV1 and on human TRPV1 was above 6670 nM in each case.

Consider `Cc1cccc(C)c1Nc1nc2c(Nc3ccc(OC(F)(F)F)cc3)ncnc2s1` [Example 28, N^2-(2,6-Dimethyl-phenyl)-N^7-(4-trifluoromethoxy-phenyl)-thiazolo[5,4-d]pyrimidine-2,7-diamine], for which the IC50 was found to be 39 nM on rat TRPV1 and 81 nM against human TRPV1.

`Cc1ccc(Nc2ncnc3sc(Nc4c(C)cccc4C)nc23)cc1C` [Example 165, N^2-(2,6-Dimethyl-phenyl)-N^7-(3,4-dimethyl-phenyl)-thiazolo[5,4-d]pyrimidine-2,7-diamine]: the half-inhibitory concentration (IC50) against rat TRPV1 and on human TRPV1 was above 6670 nM in each case.

Regarding `Cc1cccc(C)c1Nc1nc2c(Nc3ccc(C(N)=O)cc3)ncnc2s1` [Example 169, 4-[2-(2,6-Dimethyl-phenylamino)-thiazolo[5,4-d]pyrimidin-7-ylamino]-benzamide], the half-inhibitory concentration (IC50) at rat TRPV1 was 17300 nM; against human TRPV1, above 20000 nM.

For the compound `CSc1ccccc1Nc1nc2c(Nc3ccc(C(F)(F)F)cc3)nc(C)nc2s1` [Example 195, 5-Methyl-N^2-(2-methylsulfanyl-phenyl)-N^7-(4-trifluoromethyl-phenyl)-thiazolo[5,4-d]pyrimidine-2,7-diamine], the half-inhibitory concentration (IC50) stood at 319 nM against rat TRPV1 and 419 nM against human TRPV1.

Regarding `Cc1cccc(C)c1Nc1nc2c(Nc3ccc(S(=O)(=O)N4CCN(C)CC4)cc3)ncnc2s1` [Example 110, N^2-(2,6-Dimethyl-phenyl)-N^7-[4-(4-methyl-piperazine-1-sulfonyl)-phenyl]-thiazolo[5,4-d]pyrimidine-2,7-diamine], the IC50 against rat TRPV1 worked out at 20 nM; at human TRPV1, 26 nM.

On to `Cc1ccccc1Nc1nc2c(Nc3ccc(S(=O)(=O)N4CCCC4)cc3)ncnc2s1` [Example 83, N^7-[4-(Pyrrolidine-1-sulfonyl)-phenyl]-N^2-o-tolyl-thiazolo[5,4-d]pyrimidine-2,7-diamine], for which the IC50 at rat TRPV1 is 2 nM; at human TRPV1, 3 nM.

As for `Cc1nc(Nc2ccc(S(=O)(=O)C(F)(F)F)cc2)c2nc(Nc3c(C)cccc3C)sc2n1` [Example 90, N^2-(2,6-Dimethyl-phenyl)-5-methyl-N^7-(4-trifluoromethanesulfonyl-phenyl)-thiazolo[5,4-d]pyrimidine-2,7-diamine], the IC50 amounted to 15 nM against rat TRPV1 and 7 nM on human TRPV1.

For the compound `Cc1nc(Nc2ccc(C(F)(F)F)cc2)c2nc(Nc3c(C)cccc3C)sc2n1` [Example 245, N^2-(2,6-Dimethyl-phenyl)-5-methyl-N^7-(4-trifluoromethyl-phenyl)-thiazolo[5,4-d]pyrimidine-2,7-diamine], the IC50 against rat TRPV1 was 5 nM; on human TRPV1, 6 nM.

In the case of `Cc1nc(Nc2ccc(S(=O)(=O)C(C)C)cc2)c2nc(Nc3c(C)cccc3C)sc2n1` [Example 102, N^2-(2,6-Dimethyl-phenyl)-5-methyl-N^7-[4-(Propane-2-sulfonyl)-phenyl]-thiazolo[5,4-d]pyrimidine-2,7-diamine], the concentration for half-maximal inhibition (IC50) at rat TRPV1 is 19 nM; against human TRPV1, 18 nM.

In the case of `Cc1cccc(C)c1Nc1nc2c(Nc3ccc(C(F)(F)F)c(Cl)c3)ncnc2s1` [Example 13, N^7-(3-Chloro-4-trifluoromethyl-phenyl)-N^2-(2,6-dimethyl-phenyl)-thiazolo[5,4-d]pyrimidine-2,7-diamine], the figures for the IC50 at rat TRPV1 and at human TRPV1 were 34 nM and 113 nM, respectively.

Regarding `Cc1cccc(C)c1Nc1nc2c(Nc3ccc(C(F)(F)F)c(F)c3)ncnc2s1` [Example 108, N^2-(2,6-Dimethyl-phenyl)-N^7-(3-fluoro-4-trifluoromethyl-phenyl)-thiazolo[5,4-d]pyrimidine-2,7-diamine], the IC50 against rat TRPV1 came out at 14 nM; on human TRPV1, 26 nM.

Turning to `Cc1cccc(C)c1Nc1nc2c(Nc3ccc(S(=O)(=O)N4CCCC4)cc3)ncnc2s1` [Example 104, N^2-(2,6-Dimethyl-phenyl)-N^7-[4-(pyrrolidine-1-sulfonyl)-phenyl]-thiazolo[5,4-d]pyrimidine-2,7-diamine], the values for the half-maximal inhibitory concentration (IC50) against rat TRPV1 and at human TRPV1 were 7 nM and 22 nM, respectively.

For the compound `Cc1nc(Nc2ccc(S(=O)(=O)N(C)C)cc2)c2nc(Nc3c(Cl)cccc3Cl)sc2n1` [Example 81, 4-[2-(2,6-Dichloro-phenylamino)-5-methyl-thiazolo[5,4-d]pyrimidin-7-ylamino]-N,N-dimethyl-benzenesulfonamide], the IC50 on rat TRPV1 and on human TRPV1 was 2 nM in each case.

As to `Cc1nc(Nc2ccc(C(C)C)cc2)c2nc(Nc3c(C)cccc3C)sc2n1` [Example 125, N^2-(2,6-Dimethyl-phenyl)-N^7-(4-isopropyl-phenyl)-5-methyl-thiazolo[5,4-d]pyrimidine-2,7-diamine], the IC50 against rat TRPV1 is 19 nM; against human TRPV1, 123 nM.

Regarding `Cc1nc(Nc2ccc(C(F)(F)F)nc2)c2nc(Nc3c(-c4ccccc4)noc3C)sc2n1` [Example 26, 5-Methyl-N^2-(5-methyl-3-phenyl-isoxazol-4-yl)-N^7-(6-trifluoromethyl-pyridin-3-yl)-thiazolo[5,4-d]pyrimidine-2,7-diamine], the IC50 against rat TRPV1 was found to be 55 nM; on human TRPV1, 208 nM.

Consider `Cc1nc(Nc2ccc(SC(C)C)cc2)c2nc(Nc3c(Cl)cccc3Cl)sc2n1` [Example 103, N^2-(2,6-Dichloro-phenyl)-N^7-(4-isopropylsulfanyl-phenyl)-5-methyl-thiazolo[5,4-d]pyrimidine-2,7-diamine], for which the IC50 at rat TRPV1 came out at 33 nM; against human TRPV1, 20 nM.

Consider `Cc1nc(Nc2ccc(S(C)(=O)=O)cc2)c2nc(Nc3c(Cl)cccc3Cl)sc2n1` [Example 78, N^2-(2,6-Dichloro-phenyl)-N^7-(4-methanesulfonyl-phenyl)-5-methyl-thiazolo[5,4-d]pyrimidine-2,7-diamine], for which the IC50 came to 1 nM at rat TRPV1 and 2 nM against human TRPV1.

For the compound `CS(=O)(=O)c1ccc(Nc2ncnc3sc(Nc4ccccc4Cl)nc23)cc1` [Example 126, N^2-(2-Chloro-phenyl)-N^7-(4-methanesulfonyl-phenyl)-thiazolo[5,4-d]pyrimidine-2,7-diamine], the IC50 on rat TRPV1 turned out to be 30 nM; against human TRPV1, 129 nM.

Take `CS(=O)(=O)c1nc(Nc2ccc(C(F)(F)F)cc2)c2nc(Nc3c(Cl)cccc3Cl)sc2n1` [Example 53, N^2-(2,6-Dichloro-phenyl)-5-methanesulfonyl-N^7-(4-trifluoromethyl-phenyl)-thiazolo[5,4-d]pyrimidine-2,7-diamine]: the results for the IC50 against rat TRPV1 and against human TRPV1 were 93 nM and 196 nM, respectively.

Turning to `Cc1cccc(C)c1Nc1nc2c(Nc3ccccc3)ncnc2s1` [Example 147, N^2-(2,6-Dimethyl-phenyl)-N^7-phenyl-thiazolo[5,4-d]pyrimidine-2,7-diamine], the IC50 against rat TRPV1 turned out to be 354 nM; against human TRPV1, 723 nM.
